Assay results as given in patent publication US20030158267A1, “Method and compositions for inhibiting the scent tracking ability of biting midges” (priority 2002, published 2003).

Tested on: biting midges (Culicoides furens)
Experiment: Competitive field test: biting midges attracted to, killed by and collected in a CO2/octenol-baited heated electrical grid device, with or without test compound emitted
Format: in vivo
Conditions: for Midges collected: linalool 1 mg/hr; for Reduction of average biting midge kill counts: over three trials, linalool 1 mg/hr vs no linalool
Description: A device comprising a cylindrical housing essentially shaped like an opened one-gallon paint can, was equipped to release determinable amounts of one or more of CO2, octenol and test compound of this invention. The device housing was equipped (covered) at it its open end with an electrical grid operating at a temperature of approximately 110° F. (44° C.) for killing any midges attracted to the grid and thereby collecting the killed midges in the housing. With the device in operation, biting midges would be attracted by the scent of CO2 and/or octenol eminating from the interior of the housing and from the heat of the electrical grid. Then, with the additional introduction of test compound from the housing it was possible to determine the inhibiting effect of the test compound by determining the decrease in biting midges attracted and killed by the teat device. The test was conducted in a designated test area known for its abundance of biting midges along the Indian River in Vero Beach, Fla. at the U.S. Department of Agriculture test facility. Competitive tests were conducted over a twelve day period in September.. During Days 1 to 3 and 7 to 9 the test conditions of the test device were set to mimic a bird as the target, namely the device emitted 50 cc/min CO2 and no octenol, and during Days 4 to 6 and 10 to 12 the test conditions were set to mimic a mammal as the target, namely the device emitted 50 cc/min CO2 and 7 mg/hr octenol. In these competitive tests, the inhibiting compound was either not emitted (Days 1 to 6) or emitted (Days 7 to 12). The test then determined the number of midges killed and collected in the device without the test compound present, and the number of midges killed and collected in the device with the test compound present in order to determine the ability of the test compound to inibit the ability of the biting midges (Culicoides furens) to sense the […] target.

C=CC(C)(O)CCC=C(C)C (centres unmarked) [Linalool, linalool]
Midges collected (Day 7, device mimicking a bird: CO2 50 cc/min, octenol 0 mg/hr): 13 | Midges collected (Day 8, device mimicking a bird: CO2 50 cc/min, octenol 0 mg/hr): 5 | Midges collected (Day 9, device mimicking a bird: CO2 50 cc/min, octenol 0 mg/hr): 14 | Midges collected (Day 10, device mimicking a mammal: CO2 50 cc/min, octenol 7 mg/hr): 29 | Midges collected (Day 11, device mimicking a mammal: CO2 50 cc/min, octenol 7 mg/hr): 81 | Midges collected (Day 12, device mimicking a mammal: CO2 50 cc/min, octenol 7 mg/hr): 364 | Midges collected, total (Days 7-9 total, bird mimic: CO2 50 cc/min, no octenol, linalool 1 mg/hr (without linalool, days 1-3: total 176)): Total 32 | Midges collected, Avg./day (Days 10-12 average per day, mammal mimic: CO2 50 cc/min, octenol 7 mg/hr, linalool 1 mg/hr (without linalool: 1137)): Avg./day 158 | Midges collected, total (Days 10-12 total, mammal mimic: CO2 50 cc/min, octenol 7 mg/hr, linalool 1 mg/hr (without linalool, days 4-6: total 3410)): Total 474 | Reduction of average biting midge kill counts (device mimicking a bird (CO2 50 cc/min, no octenol)): 81% | Reduction of average biting midge kill counts (device mimicking a mammal (CO2 50 cc/min, octenol 7 mg/hr)): 86%
